Patent US20070149465A1, “COMPOSITIONS AND METHODS FOR PREVENTION AND TREATMENT OF CACHEXIA” (priority 2005, published 2007)
≈ marks a conversion by molar mass, not a printed value.

Key:
[1] = tested on: Saline-inoculated rats; assay: Rat AH130 experiments, saline-inoculated control rats given drug; format: in vivo, female Wistar rats; conditions: for Carcass Weights Mean / Gastrocnemius Weights Mean / Heart Weights Mean: Saline, Day 5, normalized to 100 g Day 5 Total Body Weight
Procedure: Following the method of Busquets et al (Busquets S, et al: Cancer Res 64:6725-31, 2004), female Wistar rats were inoculated (Day 0) intra-peritoneally (i.p.) with 2×10^7 cells/animal of Yoshida AH-130 ascites hepatoma (AH) cells. Control animals were inoculated with an equivalent amount of sterile saline solution. […] The animals were sacrificed on Day 5. Upon sacrifice, wet weights of heart and gastrocnemius muscle were determined. Carcass (after gastrocnemius, heart, and ascites removal) weight was also determined upon sacrifice.
Treatment Group=Inoculation Type/Vehicle, or Treatment Group=Inoculation Type/F(x)R(y) where, Inoculation Type is either AH or Saline, F is formoterol fumarate, R is roxithromycin, and the parenthetical values are formoterol fumarate and roxithromycin doses (i.p. in mg/kg).

[2] = Aqueous solubility of roxithromycin (pH, buffer, ethanol); format: physicochemical; conditions: 25 °C, thermodynamic from solid
Procedure: The solutions were syringe-filtered and analyzed by HPLC for [roxithromycin]. Roxithromycin Potency was assayed by a reverse-phase HPLC method that meets the requirements of the European Pharmacopeia (EP) Monograph for roxithromycin. Solution pH values were determined per USP <791> and solution osmolality values were determined per USP <785>. Aqueous solubility limits were determined for roxithromycin as a function of buffer type (phosphate versus citrate), buffer concentration, pH, and added co-solvent (ethanol).

[3] = Stability of formoterol fumarate and roxithromycin co-formulated in oral solution; format: physicochemical; conditions: co-formulated 0.005 mg/mL formoterol fumarate + 2.0 mg/mL roxithromycin, pH 6.0, 20 mM citrate, 4.5% mannitol, 0.1% potassium sorbate
Procedure: Roxithromycin Potency was assayed by a reverse-phase HPLC method that meets the requirements of the European Pharmacopeia (EP) Monograph for roxithromycin.

[4] = Exp 2 Group 9, F 0, R 5 mg/kg i.p.
[5] = Exp 3 Group 15, F 0, R 40 mg/kg i.p.

- solubility at 24 h ([2]; citrate buffer, pH 4, aqueous buffer, 20 mM citrate, pH 4): 4130 µg/mL (≈ 4.93 mM)
- solubility at 24 h ([2]; citrate buffer, pH 4, aqueous buffer, 50 mM citrate, pH 4): 4610 µg/mL (≈ 5.51 mM)
- solubility at 24 h ([2]; citrate buffer, pH 4, aqueous buffer, 100 mM citrate, pH 4): 1890 µg/mL (≈ 2.26 mM)
- solubility at 24 h ([2]; citrate buffer, pH 4, aqueous buffer, 200 mM citrate, pH 4): 2740 µg/mL (≈ 3.27 mM)
- solubility at 24 h ([2]; citrate buffer, pH 5, aqueous buffer, 20 mM citrate, pH 5): 3540 µg/mL (≈ 4.23 mM)
- solubility at 24 h ([2]; citrate buffer, pH 5, aqueous buffer, 50 mM citrate, pH 5): 3570 µg/mL (≈ 4.26 mM)
- solubility at 24 h ([2]; citrate buffer, pH 5, aqueous buffer, 100 mM citrate, pH 5): 2770 µg/mL (≈ 3.31 mM)
- solubility at 24 h ([2]; citrate buffer, pH 5, aqueous buffer, 200 mM citrate, pH 5): 1900 µg/mL (≈ 2.27 mM)
- solubility at 24 h ([2]; citrate buffer, pH 6, aqueous buffer, 20 mM citrate, pH 6): 2450 µg/mL (≈ 2.93 mM)
- solubility at 24 h ([2]; citrate buffer, pH 6, aqueous buffer, 50 mM citrate, pH 6): 2760 µg/mL (≈ 3.3 mM)
- solubility at 24 h ([2]; citrate buffer, pH 6, aqueous buffer, 100 mM citrate, pH 6): 2300 µg/mL (≈ 2.75 mM)
- solubility at 24 h ([2]; citrate buffer, pH 6, aqueous buffer, 200 mM citrate, pH 6): 1720 µg/mL (≈ 2.05 mM)
- solubility at 24 h ([2]; citrate buffer, pH 7, aqueous buffer, 20 mM citrate, pH 7): 500 µg/mL (≈ 0.597 mM)
- solubility at 24 h ([2]; citrate buffer, pH 7, aqueous buffer, 50 mM citrate, pH 7): 980 µg/mL (≈ 1.17 mM)
- solubility at 24 h ([2]; citrate buffer, pH 7, aqueous buffer, 100 mM citrate, pH 7): 1230 µg/mL (≈ 1.47 mM)
- solubility at 24 h ([2]; citrate buffer, pH 7, aqueous buffer, 200 mM citrate, pH 7): 1250 µg/mL (≈ 1.49 mM)
- solubility at 24 h ([2]; phosphate buffer with ethanol co-solvent, pH 5, aqueous with cosolvent or surfactant or cyclodextrin, pH 5, 10 mM phosphate, 5% ethanol): 3500 µg/mL (≈ 4.18 mM)
- solubility at 24 h ([2]; phosphate buffer with ethanol co-solvent, pH 5, aqueous with cosolvent or surfactant or cyclodextrin, pH 5, 10 mM phosphate, 10% ethanol): 3800 µg/mL (≈ 4.54 mM)
- solubility at 24 h ([2]; phosphate buffer with ethanol co-solvent, pH 5, aqueous with cosolvent or surfactant or cyclodextrin, pH 5, 20 mM phosphate, 5% ethanol): 5500 µg/mL (≈ 6.57 mM)
- solubility at 24 h ([2]; phosphate buffer with ethanol co-solvent, pH 5, aqueous with cosolvent or surfactant or cyclodextrin, pH 5, 20 mM phosphate, 10% ethanol): 6000 µg/mL (≈ 7.17 mM)
- solubility at 24 h ([2]; phosphate buffer with ethanol co-solvent, pH 5, aqueous with cosolvent or surfactant or cyclodextrin, pH 5, 50 mM phosphate, 5% ethanol): 8300 µg/mL (≈ 9.92 mM)
- solubility at 24 h ([2]; phosphate buffer with ethanol co-solvent, pH 5, aqueous with cosolvent or surfactant or cyclodextrin, pH 5, 50 mM phosphate, 10% ethanol): 9200 µg/mL (≈ 11 mM)
- solubility at 24 h ([2]; phosphate buffer with ethanol co-solvent, pH 6, aqueous with cosolvent or surfactant or cyclodextrin, pH 6, 10 mM phosphate, 5% ethanol): 4100 µg/mL (≈ 4.9 mM)
- solubility at 24 h ([2]; phosphate buffer with ethanol co-solvent, pH 6, aqueous with cosolvent or surfactant or cyclodextrin, pH 6, 10 mM phosphate, 10% ethanol): 3900 µg/mL (≈ 4.66 mM)
- solubility at 24 h ([2]; phosphate buffer with ethanol co-solvent, pH 6, aqueous with cosolvent or surfactant or cyclodextrin, pH 6, 20 mM phosphate, 5% ethanol): 4600 µg/mL (≈ 5.5 mM)
- solubility at 24 h ([2]; phosphate buffer with ethanol co-solvent, pH 6, aqueous with cosolvent or surfactant or cyclodextrin, pH 6, 20 mM phosphate, 10% ethanol): 5000 µg/mL (≈ 5.97 mM)
- solubility at 24 h ([2]; phosphate buffer with ethanol co-solvent, pH 6, aqueous with cosolvent or surfactant or cyclodextrin, pH 6, 50 mM phosphate, 5% ethanol): 8100 µg/mL (≈ 9.68 mM)
- solubility at 24 h ([2]; phosphate buffer with ethanol co-solvent, pH 6, aqueous with cosolvent or surfactant or cyclodextrin, pH 6, 50 mM phosphate, 10% ethanol): 9300 µg/mL (≈ 11.1 mM)
- solubility at 24 h ([2]; phosphate buffer with ethanol co-solvent, pH 7, aqueous with cosolvent or surfactant or cyclodextrin, pH 7, 10 mM phosphate, 5% ethanol): 1800 µg/mL (≈ 2.15 mM)
- solubility at 24 h ([2]; phosphate buffer with ethanol co-solvent, pH 7, aqueous with cosolvent or surfactant or cyclodextrin, pH 7, 10 mM phosphate, 10% ethanol): 1700 µg/mL (≈ 2.03 mM)
- solubility at 24 h ([2]; phosphate buffer with ethanol co-solvent, pH 7, aqueous with cosolvent or surfactant or cyclodextrin, pH 7, 20 mM phosphate, 5% ethanol): 1700 µg/mL (≈ 2.03 mM)
- solubility at 24 h ([2]; phosphate buffer with ethanol co-solvent, pH 7, aqueous with cosolvent or surfactant or cyclodextrin, pH 7, 20 mM phosphate, 10% ethanol): 2100 µg/mL (≈ 2.51 mM)
- solubility at 24 h ([2]; phosphate buffer with ethanol co-solvent, pH 7, aqueous with cosolvent or surfactant or cyclodextrin, pH 7, 50 mM phosphate, 5% ethanol): 2300 µg/mL (≈ 2.75 mM)
- solubility at 24 h ([2]; phosphate buffer with ethanol co-solvent, pH 7, aqueous with cosolvent or surfactant or cyclodextrin, pH 7, 50 mM phosphate, 10% ethanol): 3100 µg/mL (≈ 3.7 mM)
- solubility at 24 h ([2]; phosphate buffer, pH 5, aqueous buffer, pH 5, 10 mM phosphate, 0% ethanol): 3200 µg/mL (≈ 3.82 mM)
- solubility at 24 h ([2]; phosphate buffer, pH 5, aqueous buffer, pH 5, 20 mM phosphate, 0% ethanol): 5200 µg/mL (≈ 6.21 mM)
- solubility at 24 h ([2]; phosphate buffer, pH 5, aqueous buffer, pH 5, 50 mM phosphate, 0% ethanol): 7200 µg/mL (≈ 8.6 mM)
- solubility at 24 h ([2]; phosphate buffer, pH 6, aqueous buffer, pH 6, 10 mM phosphate, 0% ethanol): 2800 µg/mL (≈ 3.35 mM)
- solubility at 24 h ([2]; phosphate buffer, pH 6, aqueous buffer, pH 6, 20 mM phosphate, 0% ethanol): 4200 µg/mL (≈ 5.02 mM)
- solubility at 24 h ([2]; phosphate buffer, pH 6, aqueous buffer, pH 6, 50 mM phosphate, 0% ethanol): 6700 µg/mL (≈ 8 mM)
- solubility at 24 h ([2]; phosphate buffer, pH 7, aqueous buffer, pH 7, 10 mM phosphate, 0% ethanol): 1400 µg/mL (≈ 1.67 mM)
- solubility at 24 h ([2]; phosphate buffer, pH 7, aqueous buffer, pH 7, 20 mM phosphate, 0% ethanol): 1300 µg/mL (≈ 1.55 mM)
- solubility at 24 h ([2]; phosphate buffer, pH 7, aqueous buffer, pH 7, 50 mM phosphate, 0% ethanol): 2000 µg/mL (≈ 2.39 mM)
- Roxithromycin Potency ([3]; week 0, 5 ° C.): 1920 µg/mL
- Roxithromycin Potency ([3]; week 0, 25 ° C.): 1920 µg/mL
- Roxithromycin Potency ([3]; week 0, 40 ° C.): 1920 µg/mL
- Roxithromycin Potency ([3]; week 2, 25 ° C.): 1740 µg/mL
- Roxithromycin Potency ([3]; week 2, 40 ° C.): 1610 µg/mL
- Roxithromycin Potency ([3]; week 4, 5 ° C.): 1920 µg/mL
- Roxithromycin Potency ([3]; week 4, 25 ° C.): 1710 µg/mL
- Roxithromycin Potency ([3]; week 4, 40 ° C.): 1470 µg/mL
Structure (SMILES): CC[C@H]1OC(=O)[C@H](C)[C@@H](O[C@H]2C[C@@](C)(OC)[C@@H](O)[C@H](C)O2)[C@H](C)[C@@H](O[C@@H]2O[C@H](C)C[C@H](N(C)C)[C@H]2O)[C@](C)(O)C[C@@H](C)/C(=N\OCOCCOC)[C@H](C)[C@@H](O)[C@]1(C)O [roxithromycin]
- Carcass Weights Mean [1, 4]: 97.6 g
- Gastrocnemius Weights Mean [1, 4]: 0.575 g
- Heart Weights Mean [1, 4]: 0.390 g
- Carcass Weights Mean [1, 5]: 96.5 g
- Gastrocnemius Weights Mean [1, 5]: 0.529 g
- Heart Weights Mean [1, 5]: 0.400 g
- gastrocnemius muscle weights compared with Saline/vehicle group ([1]; Experiment 2, Saline/F(0)R(5) group): approximately the same
- gastrocnemius muscle weights compared with Saline/vehicle control group ([1]; Experiment 3, Saline/F(0)R(40) group): not different
